Measured values as given in patent publication US20240269104A1, “METHOD FOR TREATING PARKINSON'S DISEASE” (Olatec Therapeutics, Inc., priority 2021, published 2024).

Tests used:
[1] = tested on: MPTP-injected-mouse model of PD; test: accelerating rotarod test after MPTP-acute administration; type: in vivo, C56BL/J mice
Protocol: MPTP (Sigma-Aldrich, St. Louis, MO) can be administered at two dose regimens: acute and sub-acute. For the acute regimen, MPTP was administered intraperitoneally (i.p.) four times in one day. Administrations were performed every two hours over an eight-hour period. For the subacute regimen, mice received a single i.p. administration of MPTP per day for five consecutive days. A 20 mg/kg free-base MPTP dose was used for every dose in both models. Sterile saline was used as the vehicle. Control mice were injected with saline solution using the same administration protocol and were defined as sham. Mice were sacrificed at different days after the first injection of MPTP. We used the acute protocol in C56BL/J mice to study dopamine neurodegeneration, inflammation, and motor deficits, whereas the subacute model was used to evaluate α-synuclein aggregation in the following examples. […]
The accelerating rotarod (Ugo Basile, Gemonio, ITALY) was used to evaluate locomotor function in mice subjected to the MPTP-acute administration. An accelerating program was selected to detect locomotor impairments associated to MPTP (Keshet et al, J Comp Neurol 504:690-701, 2007; Rui et al., Int J Neuropsychopharmacol., 2020). We used a rotarod device with a cylinder rod of three centimeters in diameter. The mice underwent a training period of three consecutive days prior to MPTP administration. In each training session, mice were subjected to run at four constant speeds (10 rpm, 20 rpm, 30 rpm, and 40 rpm) for 150 seconds at each speed. If mice fell during that time, they were put back in the rotarod immediately. On the testing day, we used an increased-speed program. Mice were placed on the rotarod device for 150 seconds at 30 rpm as warm up. Immediately after 150 seconds, the accelerating session started, and the speed increased from 30 rpm to 70 rpm for 500 seconds. Time to fall was recorded. Accelerating sessions were repeated three times with a resting interval of five minutes between sessions. Average time to fall per mouse was calculated and used as final measurement.
We then evaluated the effect of dapansutrile. To avoid overloading animals with fluid (which can lead to fatal heart failure), dapansutrile was administered through oral gavage at 200 mg/kg in water. Dapansutrile was given 30 minutes before the first injection of MPTP. Mice treated with saline were used as control. We also included a sham-group that received saline through intraperitoneal injections instead of MPTP. […]

IL-1α = IL-1α in LPS-stimulated cultured splenocytes from MPTP-injected mice; type: in vivo; details: mice treated 200 mg/kg for seven days; splenocytes cultured with LPS, cell lysate
Protocol: Seven days after MPTP-acute administration, peripheral blood and spleen were isolated from each mouse, and hematological changes in the peripheral blood and cytokine production in the spleen were evaluated. […] White blood cells, lymphocytes, monocytes, and granulocytes were measured from the peripheral blood using a HemaTrue cell counter (Heska, Loveland, CO). Spleens were isolated and mechanically passed through a 70 μm cell strainer (ThermoFisher) in PBS. Cells were plated in a 96-well plate at a concentration of 200,000 cells/well in RPMI medium (Coring, New York, NY) with 10% FBS. After that, cells were stimulated with LPS at 1 μg/ml and 5 μg/ml. RPMI medium was used as control. After 72 hours, supernatant was isolated to measure the levels of IL-6. Cells were lysed with RIPA buffer (ThermoFisher) supplemented with protease inhibitor (ThermoFisher) to measure IL-1α levels. In both cases, 5-6 mice per group were used.

[2] = 200 mg/kg once a day, three days after MPTP-acute
[3] = 200 mg/kg oral gavage 30 minutes before first MPTP injection, day 3 after MPTP

## CS(=O)(=O)CCC#N [dapansutrile, 3-methanesulfonylpropionitrile]
[1]; 60 mg/kg once a day, three days after MPTP-acute
  time to fall on accelerating rotarod versus MPTP+saline: did not show any significant improvement
[1]; [2]
  mice that reached 8 cm/s on the rotarod: 7%
  mice that reached the 7 cm/s speed on the rotarod: approximately 50%
  time to fall on accelerating rotarod versus MPTP+saline: doubling
  time to fall on accelerating rotarod versus sham mice: nearly the same as the sham mice
[1]; [3]
  rotarod latency to fall, difference against sham group: not significant differences
  time on the rotarod more than mice treated with water (latency to fall): around 90 seconds
IL-1α
  reduction of the level of intracellular IL-1α in splenocytes: 40%
